# Reference: US20160257697A1, “THIOPHENE-SUBSTITUTED TETRACYCLIC COMPOUNDS AND METHODS OFUSE THEREOF FOR THE TREATMENT OF VIRAL DISEASES” (priority 2013, published 2016)
# Like-named read-outs stand apart in the source and are kept apart here.
# Columns and labels:
# Assay in all cases: microbe, parasite or virus in culture
# Type in all cases: cell-based, Hepatitis C virus (HCV)
# HCV replicon 2B = conditions: Replicon Assay A
# Procedure, shortened: (§1)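 Three-day treatment of replicon cells (2000/well, 5% FBS, 0.5% DMSO), followed by TaqMan RT-PCR of replicon RNA with cyclophilin as internal control.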
# HCV replicon 1A = conditions: Replicon Assay A
# Procedure, shortened: as §1
# HCV replicon 1AY93H = conditions: Replicon Assay A
# Procedure, shortened: as §1
# HCV replicon 1B = conditions: Replicon Assay B
# Method: In an alternate assay (“Replicon Assay B”), 1000 cells were seeded per well in a 384-well collagen coated black plate from Greiner bio-one (Cat #781946) in 5% FBS. Inhibitors of this invention were added at 24 h post-seeding, and the plates were incubated for 3 days. Cells were subsequently lysed with Qiagen lysis buffer (Cat #1062731) to extract the RNA. HCV replicon RNA level was measured by real-time PCR using the RNA-to-CT kit from Applied Biosystem (Cat #4392656) and genotype-specific primers and probes. The amplicon was located within NS5B. […] (SEQ. ID NO. 2); the probe sequence was FAM-labeled […] (SEQ. ID NO. 3).
# The real-time RT-PCR reactions were run on ABI PRISM 7900HT or Viia7 Sequence Detection System using the following program: 48° C. for 30 minutes, 95° C. for 10 minutes, 40 cycles of 95° C. for 15 sec, 60° C. for 1 minutes.
# Data for replicons 1A, 1AY93H and 2B were obtained using Replicon Assay A and data for replicons 1AQ30D and 1B were obtained using Replicon Assay B.
# [1] = HCV replicon 2B, read-out: 2B IC50
# [2] = HCV replicon 1A Y93H, read-out: 1A Y93H IC50
# [3] = read-out: 2B IC50, HCV replicon 2B
# [4] = read-out: 1A Y93H IC50, HCV replicon 1A Y93H
# [5] = Hepatitis C virus, read-out: 2B IC50 (nM), replicon 2B
# [6] = Hepatitis C virus, read-out: 1A Y93H IC50 (nM), replicon 1AY93H
# [7] = read-out: 1A Y93H IC50, replicon 1AY93H
# [8] = Hepatitis C virus, HCV replicon 1A
# [9] = Hepatitis C virus, read-out: 1A Y93H IC50, HCV replicon 1A Y93H
# [10] = Hepatitis C virus, HCV replicon 1B
smiles,measurement,setting,value
"COC(=O)N[C@H](C(=O)N1CCC[C@H]1c1ncc(-c2cc(F)c3c(c2)OC(c2ccc(C4(C)CC4)s2)n2c-3cc3cc(-c4cnc([C@@H]5CCCN5C(=O)[C@@H](NC(=O)OC)C(C)C)[nH]4)ccc32)[nH]1)C(C)C (single isomer, unassigned) [Compound 835]",IC50,HCV replicon 2B; [1],1.31 nM
same,IC50,HCV replicon 1A; HCV replicon 1A,0.0035 nM
same,IC50,HCV replicon 1AY93H; [2],0.943 nM
same,IC50,HCV replicon 1B; HCV replicon 1B,0.0014 nM
"COC(=O)N[C@H](C(=O)N1CCC[C@H]1c1ncc(-c2ccc3c(c2)OC(c2ccc(C4CC4)s2)n2c-3c(F)c3cc(-c4cnc([C@@H]5CCCN5C(=O)[C@@H](NC(=O)OC)C(C)C)[nH]4)ccc32)[nH]1)C(C)C (single isomer, unassigned) [Compound 606]",IC50,HCV replicon 2B; [3],0.286 nM
same,IC50,HCV replicon 1A; HCV replicon 1A,0.0026 nM
same,IC50,HCV replicon 1AY93H; [4],0.161 nM
same,IC50,HCV replicon 1B; HCV replicon 1B,0.0032 nM
COC(=O)NC(C(=O)N1CCC[C@H]1c1ncc(-c2cc(F)c3c(c2)OC(c2ccc(C4CC4)s2)n2c-3cc3cc(-c4cnc([C@@H]5C[C@H]6C[C@H]6N5C(=O)[C@@H](NC(=O)OC)C(C)C)[nH]4)ccc32)[nH]1)C(C)(C)F (stereo partly shown) [Compound 97],IC50,HCV replicon 2B; [5],0.036 nM
same,IC50,"HCV replicon 1A; Hepatitis C virus, replicon 1A",0.0011 nM
same,IC50,HCV replicon 1AY93H; [6],0.008 nM
same,IC50,"HCV replicon 1B; Hepatitis C virus, replicon 1B",0.0024 nM
"COC(=O)NC(C(=O)N1CCC[C@H]1c1ncc(-c2ccc3c(c2)cc2n3C(c3ccc(C4CC4)s3)Oc3cc(-c4cnc([C@@H]5CCCN5C(=O)[C@@H](NC(=O)OC)C(C)C)[nH]4)cc(F)c3-2)[nH]1)C1CN(C(=O)OC)C1 (single isomer, unassigned) [Compound 228]",IC50,"HCV replicon 2B; read-out: 2B IC50, replicon 2B",0.47 nM
same,IC50,HCV replicon 1A; replicon 1A,0.002 nM
same,IC50,HCV replicon 1AY93H; [7],0.5 nM
same,IC50,HCV replicon 1B; replicon 1B,0.0038 nM
"COC(=O)N[C@H](C(=O)N1CCC[C@H]1c1ncc(-c2cc(F)c3c(c2)OC(c2cc4c(s2)CCC4)n2c-3cc3cc(-c4cnc([C@@H]5CCCN5C(=O)[C@@H](NC(=O)OC)C(C)C)[nH]4)ccc32)[nH]1)C(C)C (single isomer, unassigned) [Compound 27]",IC50,HCV replicon 2B; [5],1.49 nM
same,IC50,"HCV replicon 1A; Hepatitis C virus, replicon 1A",0.0016 nM
same,IC50,HCV replicon 1AY93H; [6],0.65 nM
same,IC50,"HCV replicon 1B; Hepatitis C virus, replicon 1B",0.0014 nM
"CCc1ccc(C2Oc3cc(-c4cnc([C@@H]5CCCN5C(=O)C(NC(=O)OC)C5CCOC(C)(C)C5)[nH]4)cc(F)c3-c3cc4cc(-c5cnc([C@@H]6CCCN6C(=O)C(NC(=O)OC)C6CCOC(C)(C)C6)[nH]5)ccc4n32)s1 (single isomer, unassigned) [Compound 291]",IC50,"HCV replicon 2B; read-out: 2B IC50, replicon 2B",0.028 nM
same,IC50,HCV replicon 1A; replicon 1A,0.0024 nM
same,IC50,HCV replicon 1AY93H; [7],0.28 nM
same,IC50,"HCV replicon 1B; Hepatitis C virus, replicon 1B",0.0023 nM
"COC(=O)N[C@H](C(=O)N1CCC[C@H]1c1ncc(-c2ccc3c(c2)O[C@@H](c2cc4c(s2)CCC4)n2c-3cc3cc(-c4cnc([C@@H]5CCCN5C(=O)[C@@H](NC(=O)OC)C(C)C)[nH]4)ccc32)[nH]1)C(C)C (single isomer, unassigned) [Compound 600]",IC50,"HCV replicon 2B; Hepatitis C virus, read-out: 2B IC50, HCV replicon 2B",1.09 nM
same,IC50,HCV replicon 1A; [8],0.0256 nM
same,IC50,HCV replicon 1AY93H; [9],0.57 nM
same,IC50,HCV replicon 1B; [10],0.186 nM
"COC(=O)NC(C(=O)N1CCC[C@H]1c1ncc(-c2ccc3c(c2)cc2n3C(c3ccc(C4CC4)s3)Oc3cc(-c4cnc([C@@H]5C[C@@H](F)CN5C(=O)[C@@H](NC(=O)OC)C(C)C)[nH]4)cc(F)c3-2)[nH]1)C(C)(C)F (single isomer, unassigned) [Compound 114]",IC50,"HCV replicon 2B; read-out: 2B IC50, replicon 2B",0.2 nM
same,IC50,HCV replicon 1A; replicon 1A,0.0013 nM
same,IC50,HCV replicon 1AY93H; [7],0.002 nM
same,IC50,"HCV replicon 1B; Hepatitis C virus, replicon 1B",0.0024 nM
"COC(=O)N[C@H](C(=O)N1CCC[C@H]1c1ncc(-c2cc(F)c3c(c2)OC(c2ccc(F)s2)n2c-3cc3cc(-c4cnc([C@@H]5CCCN5C(=O)[C@@H](NC(=O)OC)C(C)C)[nH]4)ccc32)[nH]1)C(C)C (single isomer, unassigned) [Compound 14]",IC50,"HCV replicon 2B; read-out: 2B IC50, replicon 2B",0.23 nM
same,IC50,HCV replicon 1A; replicon 1A,0.002 nM
same,IC50,HCV replicon 1AY93H; [7],0.059 nM
same,IC50,HCV replicon 1B; replicon 1B,0.0024 nM
CCc1c2n(c3ccc(-c4cnc([C@@H]5CCCN5C(=O)[C@@H](NC(=O)OC)C(C)C)[nH]4)cc13)C(c1ccc(Cl)s1)Oc1cc(-c3cnc([C@@H]4CCCN4C(=O)[C@@H](NC(=O)OC)C(C)C)[nH]3)cc(F)c1-2 (stereo partly shown) [Compound 837],IC50,HCV replicon 1A; [8],0.0025 nM
same,IC50,HCV replicon 1AY93H; [9],1.52 nM
same,IC50,HCV replicon 1B; [10],0.0019 nM
"CC[C@@H]1CC(C(NC(=O)OC)C(=O)N2CCC[C@H]2c2ncc(-c3ccc4c(c3)cc3n4C(c4ccc(C5CC5)s4)Oc4cc(-c5cnc([C@@H]6CCCN6C(=O)[C@@H](NC(=O)OC)C(C)C)[nH]5)cc(F)c4-3)[nH]2)C[C@H](CC)O1 (single isomer, unassigned) [Compound 289]",IC50,"HCV replicon 2B; read-out: 2B IC50, replicon 2B",5.64 nM
same,IC50,HCV replicon 1A; replicon 1A,0.0031 nM
same,IC50,HCV replicon 1AY93H; [7],1.24 nM
same,IC50,"HCV replicon 1B; Hepatitis C virus, replicon 1B",0.0042 nM
"COC(=O)N[C@H](C(=O)N1C[C@H](F)C[C@H]1c1cnc(-c2ccc3c(c2)cc2n3C(c3cc4ccccc4s3)Oc3cc(-c4cnc([C@@H]5C[C@@H](F)CN5C(=O)[C@@H](NC(=O)OC)C(C)C)[nH]4)ccc3-2)[nH]1)C(C)C (single isomer, unassigned) [Compound 806]",IC50,HCV replicon 2B; [3],42.9 nM
same,IC50,HCV replicon 1A; HCV replicon 1A,0.041 nM
same,IC50,HCV replicon 1AY93H; [4],0.023 nM
same,IC50,HCV replicon 1B; HCV replicon 1B,0.009 nM
"CCc1c2n(c3ccc(-c4cnc(C5CCCN5C(=O)C(NC(=O)OC)C(C)C)[nH]4)cc13)C(c1ccc(C3CC3)s1)Oc1cc(-c3cnc(C4CCCN4C(=O)C(NC(=O)OC)C(C)C)[nH]3)cc(F)c1-2 (single isomer, unassigned) [Compound 839]",IC50,HCV replicon 2B; [1],0.971 nM
same,IC50,HCV replicon 1AY93H; [2],0.865 nM
same,IC50,HCV replicon 1B; HCV replicon 1B,0.0023 nM
"COC(=O)NC(C(=O)N1CCC[C@H]1c1ncc(-c2ccc3c(c2)cc2n3C(c3ccc(CC4CC4)s3)Oc3cc(-c4cnc([C@@H]5CCCN5C(=O)[C@@H](NC(=O)OC)C(C)C)[nH]4)cc(F)c3-2)[nH]1)C1CCOC(C)(C)C1 (single isomer, unassigned) [Compound 407]",IC50,HCV replicon 2B; [3],0.26 nM
same,IC50,HCV replicon 1A; HCV replicon 1A,0.0017 nM
same,IC50,HCV replicon 1AY93H; [4],0.258 nM
same,IC50,HCV replicon 1B; [10],0.0019 nM
COC(=O)NC(C(=O)N1CCC[C@H]1c1ncc(-c2cc(F)c3c(c2)OC(c2ccc(C4CC4)s2)n2c-3cc3cc(-c4cnc([C@@H]5CCCN5C(=O)[C@@H](NC(=O)OC)C5CCOCC5)[nH]4)ccc32)[nH]1)C(C)(C)F (stereo partly shown) [Compound 170],IC50,"HCV replicon 2B; read-out: 2B IC50, replicon 2B",0.05 nM
same,IC50,HCV replicon 1A; replicon 1A,0.001 nM
same,IC50,HCV replicon 1AY93H; [7],0.056 nM
same,IC50,HCV replicon 1B; replicon 1B,0.0033 nM
"COC(=O)N[C@H](C(=O)N1CCC[C@H]1c1ncc(-c2cc(F)c3c(c2)OC(c2ccc(F)s2)n2c-3cc3cc(-c4cnc([C@@H]5CCCN5C(=O)[C@@H](NC(=O)OC)C(C)C)[nH]4)ccc32)[nH]1)C(C)C (single isomer, unassigned) [Compound 13]",IC50,"HCV replicon 2B; read-out: 2B IC50, replicon 2B",3.79 nM
same,IC50,"HCV replicon 1A; Hepatitis C virus, replicon 1A",0.0019 nM
same,IC50,HCV replicon 1AY93H; [7],2.1 nM
same,IC50,"HCV replicon 1B; Hepatitis C virus, replicon 1B",0.0023 nM
"COC(=O)N[C@H](C(=O)N1CCC[C@H]1c1ncc(-c2cc(F)c3c(c2)OC(c2ccc(C(C)(C)O)s2)n2c-3cc3cc(-c4cnc([C@@H]5CCCN5C(=O)[C@@H](NC(=O)OC)C(C)C)[nH]4)ccc32)[nH]1)C(C)C (single isomer, unassigned) [Compound 83]",IC50,"HCV replicon 2B; read-out: 2B IC50, replicon 2B",0.8 nM
same,IC50,"HCV replicon 1A; Hepatitis C virus, replicon 1A",0.0032 nM
same,IC50,HCV replicon 1AY93H; [7],0.42 nM
same,IC50,"HCV replicon 1B; Hepatitis C virus, replicon 1B",0.0031 nM
"COC(=O)N[C@H](C(=O)N1CCC[C@H]1c1ncc(-c2ccc3c(c2)OC(c2ccc(C4CC4)s2)n2c-3cc3cc(-c4cnc([C@@H]5CCCN5C(=O)[C@@H](NC(=O)OC)C(C)C)[nH]4)ccc32)[nH]1)C(C)C (single isomer, unassigned) [Compound 704]",IC50,HCV replicon 2B; [3],1.07 nM
same,IC50,HCV replicon 1A; HCV replicon 1A,0.0029 nM
same,IC50,HCV replicon 1AY93H; [4],0.45 nM
same,IC50,HCV replicon 1B; [10],0.0029 nM
"COC(=O)NC(C(=O)N1CCC[C@H]1c1ncc(-c2ccc3c(c2)cc2n3C(c3ccc(C4CC4)s3)Oc3cc(-c4cnc([C@@H]5CCCN5C(=O)[C@@H](NC(=O)OC)C(C)C)[nH]4)cc(F)c3-2)[nH]1)C1CCOC(C)(C)C1 (single isomer, unassigned) [Compound 225]",IC50,"HCV replicon 2B; read-out: 2B IC50, replicon 2B",13.7 nM
same,IC50,HCV replicon 1A; replicon 1A,0.0477 nM
same,IC50,"HCV replicon 1B; Hepatitis C virus, replicon 1B",0.0102 nM
